Values of other authors in paper PMC6222850, “^66Ga: A Novelty or a Valuable Preclinical Screening Tool for the Design of Targeted Radiopharmaceuticals?” (Molecules : A Journal of Synthetic Chemistry and Natural …, 2018).

Test system: LNCaP tumors
Set-up: method as in PMID 29623376

For `O=C(O)CC[C@H](NC(=O)N[C@@H](CCCCNC(=O)[C@H](Cc1ccc2ccccc2c1)NC(=O)[C@H]1CC[C@H](CNC(=O)CN2CCN(CC(=O)O)CCN(CC(=O)O)CCN(CC(=O)O)CC2)CC1)C(=O)O)C(=O)O` [PSMA-617], the Clearance from blood is listed as “fast clearance from blood”.
